Source: US20160361314A1, “COMBINATION OF AN ALK INHIBITOR AND A CDK INHIBITOR FOR THE TREATMENT OF CELL PROLIFERATIVE DISEASES” (NOVARTIS AG, priority 2013, published 2016)
Like-named read-outs stand apart in the source and are kept apart here.

Legend:
[1] = test system: SKNFI neuroblastoma cells (WT); assay: xCELLigence in vitro growth inhibition (IC50); assay type: cell-based; details: Homo sapiens, SK-N-FI, 72 hours, single agent
Experimental: (§1) In vitro inhibitory activity was determined in five (5) neuroblastoma cell lines with a 96-well Real-Time Cell Electronic Sensing xCELLigence system (ACEA, San Diego, Calif.) which measures a “cell index”. Cell index is derived from alterations in electrical impedance as cells interact with the biocompatible microelectrode surface in each well to measure substrate adherent proliferation. Depending on the growth kinetics, the following cell densities were plated per well: NB1643: 20,000; SHSY5Y: 6,000; SKBE2C:10,000; NBEBC1: 11,000; NB1691: 30,000. After 24 hours, the plated cells were treated in triplicate with the test compound, each dose as indicated or with DMSO vehicle control. […] At 72 hours after drug exposure, the cell index was recorded.
(§2) The IC50 was calculated using GraphPad Prism 5.0 four parameter variable slope fitting.

[2] = test system: NB1643 neuroblastoma cells (R1275Q); assay: xCELLigence in vitro growth inhibition and Chou-Talalay combination index; details: for IC50: Homo sapiens; for Drug alone dose giving Fa (calculated) / Drug alone dose giving Fa / Dose Reduction Index (DRI, from calculations) / Dose Reduction Index (DRI): NB1643; for Drug alone dose giving Fa (calculated) / Dose Reduction Index (DRI, from calculations): Table 7; for Dose Reduction Index (DRI): A1 and B co-treatment
Experimental: (§3) The concentration dependence of the anti-proliferation effect for both combination partners, first alone and then in combination were measured using the xCELLigence system. CI for each of the treatments was computed by CalcuSyn v2 software (Biosoft, MO).
(§4) In vitro inhibitory activity was determined in five (5) neuroblastoma cell lines with a 96-well Real-Time Cell Electronic Sensing xCELLigence system (ACEA, San Diego, Calif.) which measures a “cell index”. Cell index is derived from alterations in electrical impedance as cells interact with the biocompatible microelectrode surface in each well to measure substrate adherent proliferation. […] After 24 hours, the plated cells were treated in triplicate with the test compound, each dose as indicated or with DMSO vehicle control. […] At 72 hours after drug exposure, the cell index was recorded.
(§5) The IC50 was calculated using GraphPad Prism 5.0 four parameter variable slope fitting. These values were used in dosing of the combination study which follows.
(§6) Drug combination effects and quantification of synergy were determined using the Chou-Talalay combination index method (Trends Pharmacol Sci 4, 450-454) and CalcuSyn v2 software (Biosoft, MO) in four neuroblastoma cell lines. Cells were plated and in vitro proliferation was measured using the xCELLigence system as described above.
(§7) The anti-proliferation potency of each individual agent was estimated by the median-effect dose, Dm. […] Fa=0 is determined based on DMSO control by the dose, and Fa=1 is a full response (no viable cells left) and. • Fu: fraction unaffected by dose where fu=1−fa.
(§8) The effect of combination drug effects was determined utilizing the combination index (CI) as defined by Chou according to the following equation:
(§9) where (Dx)1 and (Dx)2 are the concentrations of compounds D1 and D2 needed to produce a given level of anti-proliferative effect when used individually, whereas (D)1 and (O)2 are their concentrations that produce the same anti-proliferative effect when used in combination. The combination index is a quantitative measure of drug interaction defined as an additive effect (CI=1), antagonism (CI>1), or synergy (CI<1). Typically, a CI range, as used herein, is used to assess synergy. A combination index of 0.9-1.1 indicates additive interaction, values below 0.9 indicate synergism, and values over 1.1 indicate antagonism. The follow is a description of the CI ranges: • <0.1+++++ Very strong synergism • 0.1-0.3++++ Strong synergism • 0.3-0.7+++ Synergism • 0.7-0.85++ Moderate synergism • 0.85-0.90+ Slight synergism • 0.90-1.10± Nearly additive • 1.10-1.20− Slight antagonism • 1.20-1.45−− Moderate antagonism
(§10) The combination index was used to assess the Dose-Reduction Index (DRI) (Chou and Chou, 1988), where:
CI=(D)1/(Dx)1+(D)2/Dx)2=1/(DRI)1+1/(DRI)2
The DRI estimates how much the dose of each drug can be reduced when synergistic drugs are given in combination, while still achieving the same effect size as each drug administered individually.

[3] = test system: SKNAS neuroblastoma cells (WT); assay: xCELLigence in vitro growth inhibition (IC50); assay type: cell-based; details: Homo sapiens, SK-N-AS, 72 hours, single agent
Experimental: as §1, §2

[4] = test system: SHSY5Y neuroblastoma cells (F1174L); assay: xCELLigence in vitro growth inhibition and Chou-Talalay combination index; assay type: cell-based; details: Homo sapiens, SH-SY5Y, single agent
Experimental: as §3, §4, §5, §6, §7, §8, §9, §10
CI=(D)1/(Dx)1+(D)2/Dx)2=1/(DRI)1+1/(DRI)2 […]

[5] = NB-1643, read-out: Dm (median-effect dose)
[6] = Fa 0.51, Table 6, from experimental values
[7] = Fa 0.75, Table 6, from experimental values
[8] = Fa 0.83, Table 6, from experimental values
[9] = Fa 0.9, first of two Fa 0.9 lines, Table 6
[10] = Fa 0.9, second of two Fa 0.9 lines, Table 6
[11] = read-out: Dm (median-effect dose)

CN(C)C(=O)c1cc2cnc(Nc3ccc(N4CCNCC4)cn3)nc2n1C1CCCC1 [Compound B, 7-cyclopentyl-N,N-dimethyl-2-((5-(piperazin-1-yl)pyridin-2-yl)amino)-7H-pyrrolo[2,3-d]pyrimidine-6-carboxamide]
IC50 ([1]; unit in cell): > 6000 nM
IC50 ([2]; NB-1643, 72 h): 750 nM
IC50 [2, 5]: 788 nM
Drug alone dose giving Fa (calculated) ([2]; Fa 0.020): 0.0013507 µM
Drug alone dose giving Fa (calculated) ([2]; Fa 0.050): 0.0063668 µM
Drug alone dose giving Fa (calculated) ([2]; Fa 0.100): 0.021628 µM
Drug alone dose giving Fa (calculated) ([2]; Fa 0.150): 0.0461139 µM
Drug alone dose giving Fa (calculated) ([2]; Fa 0.200): 0.0815448 µM
Drug alone dose giving Fa (calculated) ([2]; Fa 0.250): 0.1305781 µM
Drug alone dose giving Fa (calculated) ([2]; Fa 0.300): 0.1970133 µM
Drug alone dose giving Fa (calculated) ([2]; Fa 0.350): 0.2862422 µM
Drug alone dose giving Fa (calculated) ([2]; Fa 0.400): 0.4060079 µM
Drug alone dose giving Fa (calculated) ([2]; Fa 0.450): 0.5676688 µM
Drug alone dose giving Fa (calculated) ([2]; Fa 0.500): 0.78836 µM
Drug alone dose giving Fa [2, 6]: 0.8417031 µM
Drug alone dose giving Fa (calculated) ([2]; Fa 0.550): 1.0948487 µM
Drug alone dose giving Fa (calculated) ([2]; Fa 0.600): 1.5307866 µM
Drug alone dose giving Fa (calculated) ([2]; Fa 0.650): 2.1712783 µM
Drug alone dose giving Fa (calculated) ([2]; Fa 0.700): 3.1546674 µM
Drug alone dose giving Fa [2, 7]: 4.7596923 µM
Drug alone dose giving Fa (calculated) ([2]; Fa 0.750): 4.7596923 µM
Drug alone dose giving Fa (calculated) ([2]; Fa 0.800): 7.6217203 µM
Drug alone dose giving Fa [2, 8]: 10.56 µM
Drug alone dose giving Fa (calculated) ([2]; Fa 0.850): 13.48 µM
Drug alone dose giving Fa [2, 9]: 28.74 µM
Drug alone dose giving Fa [2, 10]: 28.74 µM
Drug alone dose giving Fa (calculated) ([2]; Fa 0.900): 28.74 µM
Drug alone dose giving Fa (calculated) ([2]; Fa 0.950): 97.62 µM
Drug alone dose giving Fa (calculated) ([2]; Fa 0.990): 1455 µM
IC50 [3]: 4720 nM
IC50 ([4]; 72 hours, read-out: IC50): 111 nM
IC50 [4, 11]: 1500 nM

Cc1cc(Nc2ncc(Cl)c(Nc3ccccc3S(=O)(=O)C(C)C)n2)c(OC(C)C)cc1C1CCNCC1 [Compound A1, 5-chloro-N2-(2-isopropoxy-5-methyl-4-(piperidin-4-yl)phenyl)-N4-[2-(propane-2-sulfonyl)-phenyl]-pyrimidine-2,4-diamine]
IC50 [1]: 3480 nM
IC50 ([2]; NB-1643, 72 h): 222 nM
IC50 [2, 5]: 173 nM
Dose Reduction Index (DRI, from calculations) ([2]; Fa 0.020): 3.099
Drug alone dose giving Fa (calculated) ([2]; Fa 0.020): 0.0007501 µM
Dose Reduction Index (DRI, from calculations) ([2]; Fa 0.050): 3.455
Drug alone dose giving Fa (calculated) ([2]; Fa 0.050): 0.0028193 µM
Dose Reduction Index (DRI, from calculations) ([2]; Fa 0.100): 3.764
Drug alone dose giving Fa (calculated) ([2]; Fa 0.100): 0.0080106 µM
Dose Reduction Index (DRI, from calculations) ([2]; Fa 0.150): 3.969
Drug alone dose giving Fa (calculated) ([2]; Fa 0.150): 0.015292 µM
Dose Reduction Index (DRI, from calculations) ([2]; Fa 0.200): 4.130
Drug alone dose giving Fa (calculated) ([2]; Fa 0.200): 0.0248814 µM
Dose Reduction Index (DRI, from calculations) ([2]; Fa 0.250): 4.269
Drug alone dose giving Fa (calculated) ([2]; Fa 0.250): 0.0371953 µM
Dose Reduction Index (DRI, from calculations) ([2]; Fa 0.300): 4.394
Drug alone dose giving Fa (calculated) ([2]; Fa 0.300): 0.0528478 µM
Dose Reduction Index (DRI, from calculations) ([2]; Fa 0.350): 4.510
Drug alone dose giving Fa (calculated) ([2]; Fa 0.350): 0.0727063 µM
Dose Reduction Index (DRI, from calculations) ([2]; Fa 0.400): 4.622
Drug alone dose giving Fa (calculated) ([2]; Fa 0.400): 0.0979951 µM
Dose Reduction Index (DRI, from calculations) ([2]; Fa 0.450): 4.732
Drug alone dose giving Fa (calculated) ([2]; Fa 0.450): 0.130469 µM
Dose Reduction Index (DRI, from calculations) ([2]; Fa 0.500): 4.842
Drug alone dose giving Fa (calculated) ([2]; Fa 0.500): 0.1727061 µM
Dose Reduction Index (DRI) [2, 6]: 3.321
Drug alone dose giving Fa [2, 6]: 0.1826374 µM
Dose Reduction Index (DRI, from calculations) ([2]; Fa 0.550): 4.954
Drug alone dose giving Fa (calculated) ([2]; Fa 0.550): 0.2286167 µM
Dose Reduction Index (DRI, from calculations) ([2]; Fa 0.600): 5.072
Drug alone dose giving Fa (calculated) ([2]; Fa 0.600): 0.3043766 µM
Dose Reduction Index (DRI, from calculations) ([2]; Fa 0.650): 5.198
Drug alone dose giving Fa (calculated) ([2]; Fa 0.650): 0.4102451 µM
Dose Reduction Index (DRI, from calculations) ([2]; Fa 0.700): 5.336
Drug alone dose giving Fa (calculated) ([2]; Fa 0.700): 0.564402 µM
Dose Reduction Index (DRI) [2, 7]: 7.224
Drug alone dose giving Fa [2, 7]: 0.8019141 µM
Dose Reduction Index (DRI, from calculations) ([2]; Fa 0.750): 5.492
Drug alone dose giving Fa (calculated) ([2]; Fa 0.750): 0.8019141 µM
Dose Reduction Index (DRI, from calculations) ([2]; Fa 0.800): 5.676
Drug alone dose giving Fa (calculated) ([2]; Fa 0.800): 1.1987842 µM
Dose Reduction Index (DRI) [2, 8]: 7.135
Drug alone dose giving Fa [2, 8]: 1.5839055 µM
Dose Reduction Index (DRI, from calculations) ([2]; Fa 0.850): 5.907
Drug alone dose giving Fa (calculated) ([2]; Fa 0.850): 1.9505238 µM
Dose Reduction Index (DRI) [2, 9]: 8.386
Drug alone dose giving Fa [2, 9]: 3.7234705 µM
Dose Reduction Index (DRI) [2, 10]: 4.193
Drug alone dose giving Fa [2, 10]: 3.7234705 µM
Dose Reduction Index (DRI, from calculations) ([2]; Fa 0.900): 6.229
Drug alone dose giving Fa (calculated) ([2]; Fa 0.900): 3.7234705 µM
Dose Reduction Index (DRI, from calculations) ([2]; Fa 0.950): 6.786
Drug alone dose giving Fa (calculated) ([2]; Fa 0.950): 10.58 µM
Dose Reduction Index (DRI, from calculations) ([2]; Fa 0.990): 8.200
Drug alone dose giving Fa (calculated) ([2]; Fa 0.990): 106.3 µM
IC50 [3]: 2150 nM
IC50 ([4]; 72 hours, read-out: IC50): 963 nM
IC50 [4, 11]: 1500 nM
